This is an account of results in patent US20060223868A1, “Heterocyclic amides exhibiting and inhibitory activity at the vanilloid receptor 1(vr1)” (AstraZeneca AB, priority 2003, published 2006).

This assay concerns the target T1, hVR1 (Homo sapiens, UniProt Q8NER1).
T1 construct: expressed in transfected cells
The assay is described as follows: hVR1 FLIPR (Fluorometric Image Plate Reader) screening assay, IC50 determination. The assay is classed as cell-based. The following applies: transfected CHO cells stably expressing hVR1. How it is done:
1. hVR1 FLIPR (Fluorometric Image Plate Reader) Screening Assay
Transfected CHO cells, stably expessing hVR1 (15,000 cells/well) are seeded in 50 ul media in a black clear bottom 384 plate (Greiner) and grown in a humidified incubator (37° C., 2% CO2), 24-30 hours prior to experiment.
Subsequently, the media is removed from the cell plate by inversion and 2 μM Fluo-4 is added using a multidrop (Labsystems). Following the 40 minutes dye incubation in the dark at 37° C. and 2% CO2, the extracellular dye present is washed away using an EMBLA (Scatron), leaving the cells in 40 ul of assay buffer (1×HBSS, 10 mM D-Glucose, 1 mM CaCl2, 10 mM HEPES, 10×7.5% NaHCO3 and 2.5 mM Probenecid).
FLIPR Assay—IC50 Determination Protocol
For IC50 determinations the fluorescence is read using FLIPR filter 1 (em […]). A cellular baseline recording is taken for 30 seconds, followed by a 20 μl addition of 10, titrated half-log concentrations of the test compound, yielding cellular concentration ranging from 3 μM to 0.1 nM. Data is collected every 2 seconds for a further 5 minutes prior to the addition of a VR1 agonist solution: either 50 nM solution of capsaicin or MES (2-[N-morpholino) ethanesulfonic acid) buffer (pH 5.2), by the FLIPR pipettor. The FLIPR continues to collect data for a further 4 minutes. Compounds having antagonistic properties against the hVR1 will inhibit the increase in intracellular calcium in response to the capsaicin addition. This consequently leading to a reduction in fluorescence signal and providing a reduced fluorescence reading, compared with no compound, buffer controls. Data is exported by the FLIPR program as a sum of fluorescence calculated under the curve upon the addition of capsaicin. Maximum inhibition, Hill slope and IC50 data for each compound are generated.

Structures are written as SMILES.

T1 sequence (Q8NER1 whole entry): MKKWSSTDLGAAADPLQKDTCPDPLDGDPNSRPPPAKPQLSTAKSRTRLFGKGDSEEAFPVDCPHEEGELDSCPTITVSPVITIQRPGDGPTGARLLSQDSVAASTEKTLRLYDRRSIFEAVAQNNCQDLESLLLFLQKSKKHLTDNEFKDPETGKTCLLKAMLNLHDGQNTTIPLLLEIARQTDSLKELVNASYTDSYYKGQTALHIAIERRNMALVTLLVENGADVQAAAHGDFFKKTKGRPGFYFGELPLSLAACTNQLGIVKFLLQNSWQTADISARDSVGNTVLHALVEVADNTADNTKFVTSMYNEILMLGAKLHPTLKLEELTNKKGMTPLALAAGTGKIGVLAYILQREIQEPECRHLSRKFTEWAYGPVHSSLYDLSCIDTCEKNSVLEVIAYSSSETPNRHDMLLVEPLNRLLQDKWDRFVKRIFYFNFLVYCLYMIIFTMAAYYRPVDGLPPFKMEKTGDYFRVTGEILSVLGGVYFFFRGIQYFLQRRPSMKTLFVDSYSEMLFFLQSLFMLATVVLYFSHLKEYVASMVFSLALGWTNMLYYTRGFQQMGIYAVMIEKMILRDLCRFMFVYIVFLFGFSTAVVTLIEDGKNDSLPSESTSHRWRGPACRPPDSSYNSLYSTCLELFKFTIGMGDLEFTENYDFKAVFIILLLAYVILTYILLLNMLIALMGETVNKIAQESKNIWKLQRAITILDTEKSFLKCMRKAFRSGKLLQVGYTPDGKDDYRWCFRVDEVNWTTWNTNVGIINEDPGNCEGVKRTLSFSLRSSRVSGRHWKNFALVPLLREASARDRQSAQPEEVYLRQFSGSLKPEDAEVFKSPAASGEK

One may read the IC50 as the concentration that inhibits the measured activity by half. Read a high IC50 as lower potency. As to `CC(C)Oc1ccc(C(=O)Nc2ccc3sc(CO)nc3c2)cc1` [Example 19, N-[2-(Hydroxymethyl)-1,3-benzothiazol-5-yl]-4-isopropoxybenzamide], the IC50 is, setting by setting: (agonist H+/MES buffer (pH 5.2)) 45 nM; (agonist capsaicin) 50 nM. Take `O=C(Nc1ccc2sc(CO)nc2c1)c1ccc(Br)cc1` [Example 2, 4-Bromo-N-[2-(hydroxymethyl)-1,3-benzothiazol-5-yl]benzamide]: the IC50 reads like this: (agonist H+/MES buffer (pH 5.2)) 60 nM; (agonist capsaicin) 10 nM.

For the molecule `CC(O)c1nc2cc(NC(=O)c3ccc(C(C)(C)C)cc3)ccc2s1` (centres unmarked) [Example 71, 4-tert-Butyl-N-[2-(1-hydroxyethyl)-1,3-benzothiazol-5-yl]benzamide], the IC50 (agonist capsaicin) stood at 200 nM.
